We go through 23 compounds from patent publication US11932658B2 (BRISTOL-MYERS SQUIBB COMPANY, priority 2016, dated 2024).

pIC50: −log10 of the molar value.

This experiment deals with T1, PAR4 (Homo sapiens, UniProt Q96RI0).
T1 construct: expressed in transfected cells; host or cells: HEK293 PAR4 Clone 1.2A (BMS Arctic ID 383940)
T1 sequence (Q96RI0 18-385): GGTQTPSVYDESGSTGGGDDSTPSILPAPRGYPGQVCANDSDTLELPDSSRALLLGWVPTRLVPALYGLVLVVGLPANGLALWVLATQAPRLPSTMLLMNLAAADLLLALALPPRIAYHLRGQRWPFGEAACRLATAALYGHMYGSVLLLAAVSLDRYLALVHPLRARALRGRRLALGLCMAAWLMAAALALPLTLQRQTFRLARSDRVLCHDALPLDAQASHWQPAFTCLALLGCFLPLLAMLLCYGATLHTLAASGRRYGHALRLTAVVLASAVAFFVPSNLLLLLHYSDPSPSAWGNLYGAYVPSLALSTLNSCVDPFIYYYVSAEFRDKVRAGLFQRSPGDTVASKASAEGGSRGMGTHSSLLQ
The experiment is described as follows: PAR4 FLIPR assay (antagonism of agonist peptide-induced calcium mobilization). Type of experiment: cell-based. In short, it runs like this:
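Antagonism was taken as block of calcium mobilization evoked by the agonist peptide H-Ala-Phe(4-F)-Pro-Gly-Trp-Leu-Val-Lys-Asn-[…]-NH2, added after 30 min room-temperature compound preincubation in dye-loaded PAR4-transfected HEK293 cells (endogenous PAR1). Fluorescence was read on FDSS, with compound addition alone used as the agonist counter-screen; values come from 11-point concentration-response curves.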
In general, pIC50 refers to −log10 of the IC50, conventionally taken in molar units. On to `COc1cnc2c(-c3nc4c(C(F)F)cc5c(c4s3)OCC(COC(=O)Nc3ccnc(C)c3)O5)cc(C)cc2n1` (centres unmarked) [Example 74, (4-(difluoromethyl)-2-(2-methoxy-7-methylquinoxalin-5-yl)-7,8-dihydro-[1,4]dioxino[2′,3′:3,4]benzo[1,2-d]thiazol-7-yl)methyl (2-methylpyridin-4-yl)carbamate], for which the pIC50 is 8.07. The value for `COc1cnc2c(-c3nc4c(F)cc5c(c4s3)OC[C@H](COC(=O)Nc3ccnc(C)c3)O5)cc(C)cc2n1` [Example 75, (R)-(4-fluoro-2-(2-methoxy-7-methylquinoxalin-5-yl)-7,8-dihydro-[1,4]dioxino[2′,3′:3,4]benzo[1,2-d]thiazol-7-yl)methyl (2-methylpyridin-4-yl)carbamate] was 8.31. Turning to `COc1cnc2c(-c3nc4c(F)cc5c(c4s3)OC[C@H](COC(=O)Nc3ccc(C)nc3)O5)cc(C)cc2n1` [Example 76, (R)-(4-fluoro-2-(2-methoxy-7-methylquinoxalin-5-yl)-7,8-dihydro-[1,4]dioxino[2′,3′:3,4]benzo[1,2-d]thiazol-7-yl)methyl (6-methylpyridin-3-yl)carbamate], the pIC50 is 8.57.

For the compound `COc1cnc2c(-c3nc4c(C)cc5c(c4s3)OCC(COC(=O)Nc3cncc(C(N)=O)c3)O5)cc(C)cc2n1` (centres unmarked) [Example 77, (2-(2-methoxy-7-methylquinoxalin-5-yl)-4-methyl-7,8-dihydro-[1,4]dioxino [2′,3′:3,4]benzo[1,2-d]thiazol-7-yl)methyl (5-carbamoylpyridin-3-yl)carbamate], the pIC50 is 7.82. With `COc1cnc2c(-c3nc4c(C)cc5c(c4s3)OCC(COC(=O)Nc3ccc4c(c3)C(=O)NCC4)O5)cc(C)cc2n1` (centres unmarked) [Example 78, (2-(2-methoxy-7-methylquinoxalin-5-yl)-4-methyl-7,8-dihydro-[1,4]dioxino[2′,3′:3,4]benzo[1,2-d]thiazol-7-yl)methyl (1-oxo-1,2,3,4-tetrahydroisoquinolin-7-yl)carbamate], the pIC50 was 8.07. On to `COc1cnc2c(-c3nc4c(C)cc5c(c4s3)OCC(COC(=O)Nc3cnc(C)nc3)O5)cc(C)cc2n1` (centres unmarked) [Example 79, (2-(2-methoxy-7-methylquinoxalin-5-yl)-4-methyl-7,8-dihydro-[1,4]dioxino[2′,3′:3,4]benzo[1,2-d]thiazol-7-yl)methyl (2-methylpyrimidin-5-yl)carbamate], for which the pIC50 is 7.54.

`COc1cnc2c(-c3nc4c(C(F)F)cc5c(c4s3)OC[C@H](COC(=O)Nc3ccc(C)nc3)O5)cc(C)cc2n1` [Example 80, (R)-(4-(difluoromethyl)-2-(2-methoxy-7-methylquinoxalin-5-yl)-7,8-dihydro-[1,4]dioxino[2′,3′:3,4]benzo[1,2-d]thiazol-7-yl)methyl (6-methylpyridin-3-yl)carbamate]: the pIC50 was 7.48. On to `COc1ccc(NC(=O)OC[C@H]2COc3c(cc(C(F)F)c4nc(-c5cc(C)cc6nc(OC)cnc56)sc34)O2)cn1` [Example 81, (R)-(4-(difluoromethyl)-2-(2-methoxy-7-methylquinoxalin-5-yl)-7,8-dihydro-[1,4]dioxino[2′,3′:3,4]benzo[1,2-d]thiazol-7-yl)methyl (6-methoxypyridin-3-yl)carbamate], for which the pIC50 is 7.41. Regarding `COc1cnc2c(-c3nc4c(C)cc5c(c4s3)OCC(COC(=O)Nc3ccc4ocnc4c3)O5)cc(C)cc2n1` (centres unmarked) [Example 82, (2-(2-methoxy-7-methylquinoxalin-5-yl)-4-methyl-7,8-dihydro-[1,4]dioxino[2′,3′:3,4]benzo[1,2-d]thiazol-7-yl)methyl benzo[d]oxazol-5-ylcarbamate], the negative logarithm of the IC50 (pIC50) was 7.26. As for `COc1cnc2c(-c3nc4c(F)cc5c(c4s3)OC[C@H](COC(=O)Nc3cccnc3)O5)cc(CO)cc2n1` [Example 83, (R)-(4-fluoro-2-(7-(hydroxymethyl)-2-methoxyquinoxalin-5-yl)-7,8-dihydro-[1,4]dioxino [2′,3′:3,4]benzo[1,2-d]thiazol-7-yl)methyl pyridin-3-ylcarbamate], the pIC50 was 7.54. The result for `COc1cnc2c(-c3nc4c(C)cc5c(c4s3)OC[C@H](COC(=O)Nc3ccnc(C)c3)O5)cc(C(F)F)cc2n1` [Example 84, (R)-(2-(7-(difluoromethyl)-2-methoxyquinoxalin-5-yl)-4-methyl-7,8-dihydro-[1,4]dioxino[2′,3′:3,4]benzo[1,2-d]thiazol-7-yl)methyl (2-methylpyridin-4-yl)carbamate] reads 7.48. The value for `COc1cnc2c(-c3nc4c(F)cc5c(c4s3)OC[C@H](COC(=O)Nc3ccnc(C)c3)O5)cc(CO)cc2n1` [Example 85, (R)-(4-fluoro-2-(7-(hydroxymethyl)-2-methoxyquinoxalin-5-yl)-7,8-dihydro-[1,4]dioxino [2′,3′:3,4]benzo[1,2-d]thiazol-7-yl)methyl (2-methylpyridin-4-yl)carbamate] was 7.82. The result for `C=Cc1cc(-c2nc3c(C)cc4c(c3s2)OCC(COC(=O)Nc2ccc(OC)nc2)O4)c2ncc(OC)nc2c1` (centres unmarked) [Example 86, (2-(2-methoxy-7-vinylquinoxalin-5-yl)-4-methyl-7,8-dihydro-[1,4]dioxino[2′,3′:3,4]benzo [1,2-d]thiazol-7-yl)methyl (6-methoxypyridin-3-yl)carbamate] reads 8.20; that for `COc1ccc(NC(=O)OCC2COc3c(cc(C)c4nc(-c5cc(CO)cc6nc(OC)cnc56)sc34)O2)cn1` (centres unmarked) [Example 87, (2-(7-(hydroxymethyl)-2-methoxyquinoxalin-5-yl)-4-methyl-7,8-dihydro-[1,4]dioxino[2′,3′:3,4]benzo[1,2-d]thiazol-7-yl)methyl (6-methoxypyridin-3-yl)carbamate], 8.70; that for `COc1ccc(NC(=O)OCC2COc3c(cc(C)c4nc(-c5cc(C(C)O)cc6nc(OC)cnc56)sc34)O2)cn1` (centres unmarked) [Example 88, (2-(7-(1-hydroxyethyl)-2-methoxyquinoxalin-5-yl)-4-methyl-7,8-dihydro-[1,4]dioxino[2′,3′:3,4]benzo[1,2-d]thiazol-7-yl)methyl (6-methoxypyridin-3-yl)carbamate], 8.36. On to `C=Cc1cc(-c2nc3c(C)cc4c(c3s2)OCC(COC(=O)Nc2cccnc2)O4)c2ncc(OC)nc2c1` (centres unmarked) [Example 89, (2-(2-methoxy-7-vinylquinoxalin-5-yl)-4-methyl-7,8-dihydro-[1,4]dioxino[2′,3′:3,4]benzo [1,2-d]thiazol-7-yl)methyl pyridin-3-ylcarbamate], for which the pIC50 is 7.70. The result for `COc1cnc2c(-c3nc4c(C)cc5c(c4s3)OCC(COC(=O)Nc3cccnc3)O5)cc(CO)cc2n1` (centres unmarked) [Example 90, (2-(7-(hydroxymethyl)-2-methoxyquinoxalin-5-yl)-4-methyl-7,8-dihydro-[1,4]dioxino[2′,3′:3,4]benzo[1,2-d]thiazol-7-yl)methyl pyridin-3-ylcarbamate] reads 8.57; that for `COc1cnc2c(-c3nc4c(C)cc5c(c4s3)OC[C@H](COC(=O)Nc3ccc(C)nc3)O5)cc(C#N)cc2n1` [Example 91, (R)-(2-(7-cyano-2-methoxyquinoxalin-5-yl)-4-methyl-7,8-dihydro-[1,4]dioxino[2′,3′:3,4]benzo[1,2-d]thiazol-7-yl)methyl (6-methylpyridin-3-yl)carbamate], 8.96. The result for `COc1cnc2c(-c3nc4c(C)cc5c(c4s3)OC[C@H](COC(=O)Nc3ccnc(C)c3)O5)cc(C#N)cc2n1` [Example 92, (R)-(2-(7-cyano-2-methoxyquinoxalin-5-yl)-4-methyl-7,8-dihydro-[1,4]dioxino[2′,3′:3,4]benzo[1,2-d]thiazol-7-yl)methyl (2-methylpyridin-4-yl)carbamate] reads 8.85; that for `COc1cnc2c(-c3nc4c(C)cc5c(c4s3)OC[C@H](COC(=O)Nc3cccnc3)O5)cc(C#N)cc2n1` [Example 93, (R)-(2-(7-cyano-2-methoxyquinoxalin-5-yl)-4-methyl-7,8-dihydro-[1,4]dioxino[2′,3′:3,4]benzo[1,2-d]thiazol-7-yl)methyl pyridin-3-ylcarbamate], 7.70.

On to `COc1ccc(NC(=O)OC[C@H]2COc3c(cc(C)c4nc(-c5cc(C#N)cc6nc(OC)cnc56)sc34)O2)cn1` [Example 94, (R)-(2-(7-cyano-2-methoxyquinoxalin-5-yl)-4-methyl-7,8-dihydro-[1,4]dioxino[2′,3′:3,4]benzo[1,2-d]thiazol-7-yl)methyl (6-methoxypyridin-3-yl)carbamate], for which the negative-log IC50 (pIC50) is 7.54. The result for `COc1cnc2c(-c3nc4c(C)cc5c(c4s3)OCC(COC(=O)Nc3cccnc3)O5)cc(Cl)cc2n1` (centres unmarked) [Example 95, (2-(7-chloro-2-methoxyquinoxalin-5-yl)-4-methyl-7,8-dihydro-[1,4]dioxino[2′,3′:3,4]benzo[1,2-d]thiazol-7-yl)methyl pyridin-3-ylcarbamate] reads 6.85; that for `COc1cnc2c(-c3nc4c(C)cc5c(c4s3)OCC(COC(=O)Nc3ccc(F)nc3)O5)cc(Cl)cc2n1` (centres unmarked) [Example 96, (2-(7-chloro-2-methoxyquinoxalin-5-yl)-4-methyl-7,8-dihydro-[1,4]dioxino[2′,3′:3,4]benzo[1,2-d]thiazol-7-yl)methyl (6-fluoropyridin-3-yl)carbamate], 7.92.
